For one compound, Kd results are on record in paper PMC5599990, “Matriptase Induction of Metalloproteinase‐Dependent Aggrecanolysis In Vitro and In Vivo: Promotion of Osteoarthritic Cartilage Damage by Multiple Mechanisms” (Arthritis & Rheumatology (Hoboken, N.j.), 2017).

The target of the assay is T1, matriptase (Homo sapiens, UniProt Q9Y5Y6).
T1 construct: gene ST14; catalytic domain; amino acids 596–855
T1 sequence (Q9Y5Y6 596-855): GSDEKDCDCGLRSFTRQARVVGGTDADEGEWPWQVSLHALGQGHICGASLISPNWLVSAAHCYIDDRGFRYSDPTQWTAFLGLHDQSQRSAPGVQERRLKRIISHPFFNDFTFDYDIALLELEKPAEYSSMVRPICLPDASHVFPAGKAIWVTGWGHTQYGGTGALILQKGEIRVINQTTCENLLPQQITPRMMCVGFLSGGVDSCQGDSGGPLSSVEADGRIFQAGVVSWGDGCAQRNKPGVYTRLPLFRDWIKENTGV
Nature of the assay: isothermal titration calorimetry at […] °C ([…] stoichiometry); also enzyme inhibition, Ki =[…]. In kind it is binding. (ITC needs no label: the signal is the heat of the interaction.)

The compound `N=C(N)c1cccc(C[C@H](NS(=O)(=O)c2cccc(NC(=O)CCN)c2)C(=O)N2CCC(CCN)CC2)c1` [compound 59, (S)‐3‐amino‐N‐(3‐(N‐(1‐(4‐(2‐aminoethyl)piperidin‐1‐yl)‐3‐(3‐carbamimidoylphenyl)‐1‐oxopropan‐2‐yl)sulfamoyl)phenyl)propanamide × 3HCl] showed a Kd of 20 nM.

Broadly, the Kd is the concentration at which binding is half-saturated. The low end stands for a tighter complex, the high end for a looser complex.
